Experimental data published in patent US20260159500A1, “KINESIN KIF18A INHIBITOR AND USE THEREOF” (SHANGHAI APEIRON THERAPEUTICS COMPANY LIMITED, priority 2022, published 2026).
Like-named read-outs stand apart in the source and are kept apart here.

Key:
[1] = molecular target: T1, Human KIF18A (amino acid sequence 1-417) (Homo sapiens, UniProt Q8NI77); test: Enzymatic activity test (ADP-Glo, microtubule-stimulated KIF18A ATPase); assay type: biochemical; conditions: 60 μg/mL microtubules, 25 μM ATP, 2.5 nM KIF18A protein, 120 min at ambient temperature, read-out: KIF18A_nM
T1 construct: purchased Viva Biotech (Shanghai) Ltd
T1 sequence (Q8NI77 1-417): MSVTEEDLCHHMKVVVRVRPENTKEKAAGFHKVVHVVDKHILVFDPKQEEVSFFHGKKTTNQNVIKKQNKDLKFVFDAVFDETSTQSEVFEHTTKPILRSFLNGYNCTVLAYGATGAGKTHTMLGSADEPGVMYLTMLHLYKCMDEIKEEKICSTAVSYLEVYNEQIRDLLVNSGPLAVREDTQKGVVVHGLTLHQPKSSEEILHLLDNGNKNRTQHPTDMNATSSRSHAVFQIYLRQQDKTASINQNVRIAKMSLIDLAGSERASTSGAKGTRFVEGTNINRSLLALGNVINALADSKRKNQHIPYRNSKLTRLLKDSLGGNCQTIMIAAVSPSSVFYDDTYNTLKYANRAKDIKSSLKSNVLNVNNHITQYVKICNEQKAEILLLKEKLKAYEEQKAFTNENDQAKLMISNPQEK
Method: Human KIF18A (amino acid sequence 1-417) was purchased from Viva Biotech (Shanghai) Ltd.; the ADP-Glo™ protein kinase kit was acquired from Promega, USA; tubulin was sourced from Cytoskeleton, USA; and the 384-well assay plate and Envision multifunctional microplate reader were obtained from PerkinElmer, USA.
Dissolve the compound powder in DMSO to prepare a stock solution of 10 mM. Then perform gradient dilution for the compounds in the microplate to achieve a final concentration of 0-10 μM. Then, add 2.5 μL each of tubulin, compound, ATP, and KIF18A protein to the microplate in sequence for reaction at ambient temperature for 120 min. The final concentrations in the enzyme reaction are 60 μg/mL for microtubules, 25 μM for ATP, and 2.5 nM for KIF18A protein. After the enzyme reaction, add 10 μL of ADP-GLO reaction reagent to each well and incubate at ambient temperature for 30 min. After that, add 20 μL of detection reagent to each well and incubate at ambient temperature for 30 min in the dark. Finally, perform chemiluminescence detection using the PerkinElmer Envision.

OVCAR3 cells = test: Cell proliferation activity test in OVCAR3 cells (CyQUANT Direct); assay type: cell-based; conditions: 3 days incubation, CyQUANT fluorescence detection, read-out: OVCAR-3_IC50_nM
Method: OVCAR3 cells were purchased from Nanjing Cobioer Biosciences Co., Ltd. RPMI-1640 medium, fetal bovine serum, and the CyQUANT Direct Cell Proliferation Assay kit were purchased from Thermo Fisher Scientific, USA; 96-well cell culture plates were sourced from Corning, USA.
Culture OVCAR3 cells with RPMI-1640 medium containing 10% fetal bovine serum and incubate them in a 5% CO2 incubator at 37° C. Only cells in the logarithmic growth phase can be used for the test.
Inoculate OVCAR3 cells into a 96-well cell culture plate at 90 μL per well and incubate overnight in a 5% CO2 incubator at 37° C. Dissolve the compound powder in DMSO to prepare a stock solution of 10 mM. Then perform gradient dilution for the compounds in the microplate to achieve a final concentration of 0-10 μM. Add 10 μL of cell culture medium containing compounds to each well to make the final DMSO content 0.2%. Incubate the cell plates in a 5% CO2 incubator at 37° C. for 3 days. Add 100 μL of CyQUANT detection reagent to each well, react at 37° C. for 60 min, and perform fluorescence detection using the PerkinElmer Envision.

HT29 cells = test: CyQuant cell proliferation activity test in HT29 cells; assay type: cell-based; conditions: Homo sapiens, HT-29, 72 h, 2000 cells per well, 3 days incubation, IC50 by XLFIT, read-out: HT29_IC50_nM
Method: HT29 cells were purchased from Nanjing Cobioer Biosciences Co., Ltd.; RPMI-1640 medium, fetal bovine serum, Trypsin-EDTA (0.25%), 96-well plates, and CyQuant reagents were purchased from ThermoFisher (USA); DMSO was purchased from SIGMA (USA).
Culture HT29 cells with RPMI-1640 containing 10% fetal bovine serum under the condition of 37° C. and 5% CO2. Only cells in the logarithmic growth phase can be used for the test.
Use the CyQuant reagent to detect the proliferation inhibitory activity of compounds on HT29 cells. Adjust the cell density and inoculate 100 μL per well into the 96-well plate (HT29 at 2000 cells per well), then incubate overnight under the condition of 37° C. and 5% CO2. Add compounds of various target concentrations (initial concentration of 3000 nM, 3-fold dilution, 9 concentration gradients), and make the DMSO content 0.2%. Incubate the cell plates at 37° C. and 5% CO2 for 3 days. Incubate with CyQuant reagent for 1 h, read the plate by Envision, and calculate IC50 using XLFIT.

Molecule | IC50 [1] [nM] | IC50 (OVCAR3 cells; Homo sapiens, OVCAR-3, 72 h) [nM] | IC50 (OVCAR3 cells) [nM] | IC50 (HT29 cells) [nM]
O=C(Nc1cc2cccnc2c(C2CCN(CC(F)(F)F)CC2)n1)c1ccc(NS(=O)(=O)CCO)cc1N1CCC2(CC1)CC2 [Example 50, 4-(2-hydroxyethylsulfonamido)-2-(6-azaspiro[2.5]octan-6-yl)-N-(8-(1-(2,2,2-trifluoroethyl)piperidin-4-yl)-1,7-naphthyridin-6-yl)benzamide] | 1490 |  |  | 
O=C(Nc1nc(N2CCC(F)(F)CC2)nc2c1CCC2)c1ccc(NS(=O)(=O)CCO)cc1N1CCC2(CC1)CC2 [Example 1] | 190 | 1030 |  | 
COc1ccc2cc(NC(=O)c3ccc(NS(=O)(=O)CCO)cc3N3CCC4(CC3)CC4)c(F)c(N3CCC(F)(F)CC3)c2n1 [Example 77, N-(8-(4,4-difluoropiperidin-1-yl)-7-fluoro-2-methoxyquinolin-6-yl)-4-((2-hydroxyethyl)sulfonamido)-2-(6-azaspiro[2.5]oct-6-yl)benzamide] | 848 | 745 |  | 
O=C(Nc1nc(N2CCC(F)(F)CC2)cc2nccn12)c1ccc(NS(=O)(=O)CCO)cc1N1CCC2(CC1)CC2 [Example 22] | 1940 |  |  | 
N-(5-(4,4-difluoropiperidin-1-yl) imidazo[1,2-c]pyrimidin-7-yl)-6-((2-hydroxyethyl)sulfonamido)-4-(6-azaspiro[2.5]octan-6-yl) nicotinamide [Example 23] | 42 |  | > 10000 | 
O=C(Nc1cc2ncccc2c(N2CCC(F)(F)CC2)n1)c1ccc(NS(=O)(=O)CCO)cc1N1CCC2(CC1)CC2 [Example 57] | 77 |  |  | 
CC(CO)S(=O)(=O)Nc1ccc(C(=O)Nc2cc3cccnc3c(N3[C@H](C)COC[C@H]3C)n2)c(N2CCC3(CC2)CC3)c1 (stereo partly drawn) [Example 102, 2-{6-Azaspiro[2.5]octan-6-yl}-N-[8-((3R,5R)-3,5-dimethylmorpholino)-1,7-naphthyridin-6-yl]-4-[1-hydroxypropane-2-sulfonamido]benzamide] | 150 |  |  | 
O=C(Nc1nc(N2CCC(F)(F)CC2)nc2c1COC2)c1ccc(NS(=O)(=O)CCO)cc1N1CCC2(CC1)CC2 [Example 2, N-(2-(4,4-difluoropiperidin-1-yl)-5,7-dihydrofuro[3,4-d]pyrimidin-4-yl)-4-((2-hydroxyethyl)sulfonamide)-2-(6-azaspiro[2.5]octan-6-yl)benzamide] | 251 | 899 |  | 
C[C@@H](CO)S(=O)(=O)Nc1ccc(C(=O)Nc2cc3sc(N)nc3c(N3CCC(F)(F)CC3)c2F)c(N2CCC3(CC2)CC3)c1 [Example 95, N-[2-amino-4-(4,4-difluoropiperidin-1-yl)-5-fluoro-1,3-benzothiazol-6-yl]-2-{6-azaspiro[2.5]octan-6-yl}-4-[(2S)-1-hydroxypropane-2-sulfonamido]benzamide] | 242 | 4.7 |  | 
O=C(Nc1nc2c(c(N3CCC(F)(F)CC3)n1)CCC2)c1ccc(NS(=O)(=O)CCO)cc1N1CCC2(CC1)CC2 [Example 3, N-(4-(4,4-difluoropiperidin-1-yl)-6,7-dihydro-5H-cyclopenta[d]pyrimidin-2-yl)-4-((2-hydroxyethyl)sulfonamide)-2-(6-azaspiro[2.5]oct-6-yl)benzamide] | 68 | 566 |  | 
Cn1ccc2c(N3CCC(F)(F)CC3)nc(NC(=O)c3ccc(NS(=O)(=O)CCO)cc3N3CCC4(CC3)CC4)cc21 [Example 38] | 131 |  |  | 126
CC(CO)S(=O)(=O)Nc1ccc(C(=O)Nc2cc3sc(N)nc3c(N3CCC(F)(F)CC3)c2F)c(C2=CCC3(CC2)CC3)c1 (stereo not drawn) [Example 101, N-(2-amino-4-(4,4-difluoropiperidin-1-yl)-5-fluorobenzo[d]thiazol-6-yl)-4-((2-hydroxy-1-methylethyl)sulfonamido)-2-(spiro[2.5]oct-5-en-6-yl)benzamide] | 139 |  |  | 
CC(C)(C)OC(=O)N1Cc2nc(NC(=O)c3ccc(NS(=O)(=O)CCO)cc3N3CCC4(CC3)CC4)nc(N3CCC(F)(F)CC3)c2C1 [Example 6, Tert-butyl 4-(4,4-difluoropiperidin-1-yl)-2-(4-(2-hydroxyethylsulfonamido)-2-(6-azaspiro[2.5]octan-6-yl)benzoylamino)-5H-pyrrolo[3,4-d]pyrimidine-6 (7H)-carboxylate] | 241 | 1480 |  | 

Results, then the molecule that gave them:

IC50 [1] [nM] | IC50 (OVCAR3 cells; Homo sapiens, OVCAR-3, 72 h) [nM] | IC50 (OVCAR3 cells) [nM] | IC50 (HT29 cells) [nM] | Molecule
> 3000 |  |  |  | CP(C)(=O)c1cnc2c(N3CCC(F)(F)CC3)cc(NC(=O)c3ccc(NS(=O)(=O)CCO)cc3N3CCC4(CC3)CC4)cc2c1 [Example 85, N-(8-(4,4-difluoropiperidin-1-yl)-3-(dimethylphosphoryl)quinolin-6-yl)-4-(2-hydroxyethylsulfonamido)-2-(6-azaspiro[2.5]octan-6-yl)benzamide]
27 | 15 |  |  | O=C(Nc1cc(N2CCC(F)(F)CC2)c2nccnc2c1)c1ccc(NS(=O)(=O)CCO)cc1N1CCC2(CC1)CC2 [Example 83, N-(8-(4,4-difluoropiperidin-1-yl)quinoxalin-6-yl)-4-((2-hydroxyethyl)sulfonamido)-2-(6-azaspiro[2.5]octan-6-yl)benzamide]
 | 358 |  |  | O=C(Nc1cc2nccn2c(N2CCC(F)(F)CC2)n1)c1ccc(NS(=O)(=O)CCO)cc1N1CCC2(CC1)CC2 [Example 21, N-(5-(4,4-difluoropiperidin-1-yl)imidazolo[1,2-c]pyrimidin-7-yl)-4-((2-hydroxyethyl)sulfonamide)-2-(6-azaspiro[2.5]octan-6-yl)benzamide]
1640 |  |  |  | O=C(Nc1nc(N2CCC(F)(F)CC2)c2occc2c1Cl)c1ccc(NS(=O)(=O)CCO)cc1N1CCC2(CC1)CC2 [Example 33, N-(4-chloro-7-(4,4-difluoropiperidin-1-yl)furo[2,3-c]pyridin-5-yl)-4-(2-hydroxyethylsulfonamido)-2-(6-azaspiro[2.5]octan-6-yl)benzamide]
255 | 5.9 |  |  | C[C@H](CO)S(=O)(=O)Nc1ccc(C(=O)Nc2cc3sc(N)nc3c(N3CCC(F)(F)CC3)c2F)c(N2CCC3(CC2)CC3)c1 [Example 94, N-[2-amino-4-(4,4-difluoropiperidin-1-yl)-5-fluoro-1,3-benzothiazol-6-yl]-2-{6-azaspiro[2.5]octan-6-yl}-4-[(2R)-1-hydroxypropane-2-sulfonamido]benzamide]
> 3000 |  |  |  | O=C(Nc1cc(N2CCC(F)(F)CC2)nc2cccnc12)c1ccc(NS(=O)(=O)CCO)cc1N1CCC2(CC1)CC2 [Example 93, N-(2-(4,4-difluoropiperidin-1-yl)-1,5-naphthyridin-4-yl)-4-(2-hydroxyethylsulfonamido)-2-(6-azaspiro[2.5]octan-6-yl)benzamide]
2260 |  |  |  | O=C(Nc1cc(N2CCC(F)(F)CC2)c2ncccc2n1)c1ccc(NS(=O)(=O)CCO)cc1N1CCC2(CC1)CC2 [Example 92, N-(4-(4,4-difluoropiperidin-1-yl)-1,5-naphthyridin-2-yl)-4-(2-hydroxyethylsulfonamido)-2-(6-azaspiro[2.5]octan-6-yl)benzamide]
